Measurements: paper PMC3509364 (Angewandte Chemie (International ed. in English), 2012)

Biological target: PAK1 (Homo sapiens, UniProt Q13153)
Test: PAK1 kinase inhibition, IC50 curves at 1 µM ATP
Format: biochemical

Chain of PAK1 (Q13153 whole entry): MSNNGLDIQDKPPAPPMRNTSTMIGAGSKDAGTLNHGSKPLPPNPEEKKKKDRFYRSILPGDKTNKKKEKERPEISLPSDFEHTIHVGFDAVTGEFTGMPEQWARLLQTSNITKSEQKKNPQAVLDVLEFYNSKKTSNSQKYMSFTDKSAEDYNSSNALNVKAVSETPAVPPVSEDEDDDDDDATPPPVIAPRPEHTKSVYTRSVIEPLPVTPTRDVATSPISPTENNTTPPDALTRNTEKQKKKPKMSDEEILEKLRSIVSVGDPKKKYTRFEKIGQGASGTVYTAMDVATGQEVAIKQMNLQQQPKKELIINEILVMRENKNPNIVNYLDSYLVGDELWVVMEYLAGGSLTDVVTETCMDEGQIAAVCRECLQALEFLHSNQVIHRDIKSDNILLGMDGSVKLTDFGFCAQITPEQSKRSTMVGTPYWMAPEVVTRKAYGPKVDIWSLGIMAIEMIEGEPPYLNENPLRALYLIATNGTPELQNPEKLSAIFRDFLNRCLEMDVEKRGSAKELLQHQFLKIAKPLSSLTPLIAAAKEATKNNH

IC50 (read-out: IC50 against PAK1, 1 µM ATP (Figure 3)): 625 ± 60 nM
Substance: SeCN
fold weaker inhibitor of PAK1 than NCS complex 1 (ratio of IC50 values, 1 µM ATP): 7.5 fold
